{"source": "patent US5368841A", "about": "“Photodynamic therapy for the destruction of the synovium in the treatment of rheumatoid arthritis and the inflammatory arthritides” (The General Hospital Corporation, priority 1993, dated 1994)", "key": {"[1]": {"conditions": "rabbit, in vivo"}, "[2]": {"tested_on": "NBT-2 (rat bladder carcinoma)", "experiment": "Intracellular PpIX synthesis versus cell proliferation rate (Table 4)", "assay_type": "cell-based", "conditions": "Dt 13.5 h"}, "[3]": {"tested_on": "EJ (human bladder carcinoma)", "experiment": "Intracellular PpIX synthesis versus cell proliferation rate (Table 4)", "assay_type": "cell-based", "conditions": "Dt 23 h"}, "[4]": {"tested_on": "5PAM (murine squamous cell carcinoma)", "experiment": "Intracellular PpIX synthesis versus cell proliferation rate (Table 4)", "assay_type": "cell-based", "conditions": "Dt 14 h"}, "[5]": {"tested_on": "HSF (human skin fibroblast)", "experiment": "Intracellular PpIX synthesis versus cell proliferation rate (Table 4)", "assay_type": "cell-based", "conditions": "Dt 27 h"}, "[6]": {"conditions": "rabbit, in vivo", "remark": "listed apart in the source", "quoted_text": "Photochemotherapeutic synovectomy was performed on an antigen induced arthritis (AIA) model in 12 New Zealand white rabbits in a double control study. After a six week sensitization period, the joints of all animals were challenged bilaterally with an injection of albumin suspended in Freund's adjuvant. After five days, eight animals received systemic injections of 2 mg/kg of Photophrin® II. At 24 hours, four animals underwent bilateral arthrotomy procedures. The right knee joint of each was exposed to 100J/cm2 of 630 nm laser light over a 20 minute period. The left knees, not receiving the laser light application, served as controls. At 48 hours post HPD injection, an additional 4 animals underwent the identical operative procedures. Post-operatively, all animals were returned to their cages and allowed free movement. […] At one month post treatment, animals were sacrificed, knee joint synovium was then harvested, fixed, and stained with H and E for pathological evaluation."}, "[7]": {"design": "species or system New Zealand White rabbits", "conditions": "rabbit, in vivo", "method": "(§1) Thirty New Zealand White rabbits weighing 2-4 kg were sensitized over a six week period with two cutaneous injections of ovalbumin suspended in Fruends adjuvant. At six weeks, the knee joints of all animals were challenged with an intra-articular injection of ovalbumin solution. Seven days following joint challenge, 25 animals received systemic intravenous injections with Photofrin® (2.0 mg/kg). Animals were killed at 6, 12, 24, 48 and 72 hours post Photofrin® injection and tissue samples were obtained of skin, quadriceps muscle, knee synovium, articular cartilage, meniscus, bone and tendon. Tissue weight was measured (Mettler AE 163 balance) and tissue samples were frozen at -90 degrees C. (Revco Ultra Low Freezer) until dye extraction.\nThe biodistribution of Photophrin® within synovium, articular cartilage and meniscus was also studied with fluorescence microscopy. At each of the harvest intervals of 6, 12, 24, 48 and 72 hours post injection, tissue specimens were obtained from experimental and control animals. Samples were placed in O.C.T. medium and frozen at -90 C. Unstained frozen sections at 10 microns were prepared using a cryostat (Microm, Inc., Heidelberg, Germany) and analyzed with a fluorescence microscope (Axiophot, Zeiss, Oberkochen, Germany) under epiluminescence of a mercury lamp (HBO 200 W/2, Zeiss). […]"}, "[8]": {"design": "species or system New Zealand White rabbits", "conditions": "rabbit, in vivo", "method": "as §1\nFor extraction, tissue samples were homogenized (Homogenizer, Model PT 10/35, Brinkman Instruments, Co., Westbury, N.Y.) in 8 cc 0.1N NaOh solution. Each sample was centrifuged at 17,000 RPM (Sorvall RC-5B, refrigerated superspeed centrifuge, DuPont instruments) for 20 minutes. The fluorescence of 2 cc of supernatant was measured with a spectrofluorometer (Model Flourolog 2, Spex Industries, Inc., Edison, N.J.) and compared to that of standard solutions of Photofrin® with known concentration, and Photofrin® mixed with supernatant of extracted control quadriceps muscle. The excitation wavelength 366 nm and fluorescence spectrum between 600 and 700 nm was analyzed. Untreated animals will served as controls and for background correction.", "remark": "listed apart in the source"}}, "data": [{"compound": "NCC(=O)CCC(=O)O", "note": "[ALA, δ-aminolevulinic acid]", "values": [{"measurement": "ALA observed in the synovium", "setting": "[1]", "result": "large amounts"}]}, {"compound": "C=CC1=C(C)c2cc3[nH]c(cc4nc(cc5[nH]c(cc1n2)c(C)c5CCC(=O)O)C(CCC(=O)O)=C4C)c(C)c3C=C", "note": "[PpIX, Protoporphyrin IX]", "values": [{"measurement": "Intracellular PpIX (4 h)", "setting": "[2]", "result": 160, "unit": "a moles/cell"}, {"measurement": "Intracellular PpIX (4 h)", "setting": "[3]", "result": 100, "unit": "a moles/cell"}, {"measurement": "Intracellular PpIX (4 h)", "setting": "[4]", "result": 160, "unit": "a moles/cell"}, {"measurement": "Intracellular PpIX (4 h)", "setting": "[5]", "result": 40, "unit": "a moles/cell"}]}, {"compound": "Photofrin®", "values": [{"measurement": "side effects of synovium destruction", "setting": "[6]", "result": "without significant side effects"}, {"measurement": "uptake by fluorescence microscopy in synovium", "setting": "[7]", "result": "significant uptake at 12, 24, 48 and 72 hours"}, {"measurement": "selectivity of uptake in inflamed synovium", "setting": "[8]", "result": "selectively taken up in synovium at 24 and 48 hours post systemic injection"}, {"measurement": "uptake in articular cartilage, meniscus, muscle and tendon", "setting": "[8]", "result": "insignificant"}, {"measurement": "Photofrin® concentration in tissue (inflamed synovium)", "setting": "[8]; iv, 2 mg/kg", "result": "greater than 4 micrograms/gram of tissue"}, {"measurement": "time of maximum uptake in inflamed synovium", "setting": "[8]; iv, 2 mg/kg", "result": 48, "unit": "h"}]}]}
